Measured values: ChEMBL document CHEMBL1150635, “Cytotoxic pyrrolo- and furanoterpenoids from the sponge sarcotragus species” (2002)
In brackets after ≈: the same amount, converted by molar mass.

Key:
Type in all cases: functional
Details in all cases: read-out: ED50 (the source's name)
A549 = assay: Cytotoxicity against human A549 cells
SK-OV-3 = assay: Cytotoxicity against human SKOV3 cells
SK-MEL-2 = assay: Cytotoxicity against human SK-MEL-2 cells
XF498 = assay: Cytotoxicity against human XF498 cells
HCT-15 = assay: Cytotoxicity against human HCT15 cells

SMILES	EC50 (A549) [µg/mL]	EC50 (SK-OV-3) [µg/mL]	EC50 (SK-MEL-2) [µg/mL]	EC50 (XF498) [µg/mL]	EC50 (HCT-15) [µg/mL]
CC1=C(O)[C@@H](C/C(C)=C\CC[C@H](C)/C=C/C=C(\C)CCCc2ccoc2)OC1=O [EPI-SARCOTIN A]	12.3 (≈ 30.9 µM)	9.6 (≈ 24.1 µM)	5.6 (≈ 14.1 µM)	9.8 (≈ 24.6 µM)	6.5 (≈ 16.3 µM)
CCC(C)CN1CC=C(CCC/C(C)=C/C=C/[C@@H](C)CC/C=C(/C)C[C@@H]2OC(=O)C(C)=C2O)C1=O (stereo not given in full) [SARCOTRINE C]	19 (≈ 39.3 µM)	6.9 (≈ 14.3 µM)	3.8 (≈ 7.86 µM)	5.4 (≈ 11.2 µM)	5.3 (≈ 11 µM)
CC1=C(O)[C@H](C/C(C)=C\CC[C@H](C)/C=C/C=C(\C)CCCC2=CC(=O)N(CCC(C)C)C2)OC1=O [SARCOTRINE D]	> 30	25.9 (≈ 53.5 µM)	13.2 (≈ 27.3 µM)	> 30	21.6 (≈ 44.7 µM)
CC1=C(O)[C@H](C/C(C)=C\CC[C@H](C)/C=C/C=C(\C)CCCC2=CCN(CCC(C)C)C2=O)OC1=O [SARCOTRINE A]	15.1 (≈ 31.2 µM)	5.3 (≈ 11 µM)	4.1 (≈ 8.48 µM)	5.5 (≈ 11.4 µM)	5 (≈ 10.3 µM)
CO[C@]1(Cc2ccoc2)C=C(CCC/C(C)=C\CC[C@@H](C)/C=C2\OC(=O)C(C)=C2O)C(=O)O1 [SARCOTIN H]	6.7 (≈ 14.7 µM)	6.8 (≈ 14.9 µM)	5.9 (≈ 12.9 µM)	6.3 (≈ 13.8 µM)	6.1 (≈ 13.4 µM)
CC1=C(O)[C@@H](C/C(C)=C\CC[C@H](C)/C=C/C=C(\C)CCCC2=CCN(CCC(C)C)C2=O)OC1=O [EPI-SARCOTRINE A]	4.3 (≈ 8.89 µM)	4 (≈ 8.27 µM)	3.4 (≈ 7.03 µM)	3.9 (≈ 8.06 µM)	3.8 (≈ 7.86 µM)
COc1cccc2c1C(=O)c1c(O)c3c(c(O)c1C2=O)C[C@@](O)(C(=O)CO)C[C@@H]3O[C@H]1C[C@H](N)[C@H](O)[C@H](C)O1 [DOXORUBICIN]	0.02 (≈ 0.0368 µM)	0.16 (≈ 0.294 µM)	0.02 (≈ 0.0368 µM)	0.13 (≈ 0.239 µM)	0.06 (≈ 0.11 µM)
C/C(=C/CC[C@@H](C)/C=C/C=C(\C)CCCc1ccoc1)CC(O)C(=O)[O-].[Na+] (stereo not given in full) [SARCOTIN I]	24.8	23.3	25.7	25.9	23.7
CO[C@]1(Cc2ccoc2)C=C(CC/C=C(\C)CCC[C@@H](C)/C=C2\OC(=O)C(C)=C2O)C(=O)O1 [SARCOTIN G]	9.1 (≈ 19.9 µM)	10 (≈ 21.9 µM)	5.1 (≈ 11.2 µM)	7.6 (≈ 16.6 µM)	7.3 (≈ 16 µM)
COC(=O)C(O)C/C(C)=C\CC[C@H](C)/C=C/C=C(\C)CCCc1ccoc1 (stereo not given in full) [SARCOTIN J]	18.1 (≈ 48.3 µM)	10 (≈ 26.7 µM)	7.8 (≈ 20.8 µM)	24.3 (≈ 64.9 µM)	8.7 (≈ 23.2 µM)
CC1=C(O)[C@H](C/C(C)=C\CC[C@H](C)/C=C/C=C(\C)CCCC2=CCN(CCc3ccccc3)C2=O)OC1=O [SARCOTRINE B]	6.3 (≈ 12.2 µM)	6.7 (≈ 12.9 µM)	4.3 (≈ 8.31 µM)	5.2 (≈ 10 µM)	4.9 (≈ 9.46 µM)
CCC(C)CN1CC=C(CCC/C(C)=C/C=C/[C@@H](C)CC/C=C(/C)C[C@H]2OC(=O)C(C)=C2O)C1=O (stereo not given in full)	27.1 (≈ 56 µM)	26.8 (≈ 55.4 µM)	15.9 (≈ 32.9 µM)	25.2 (≈ 52.1 µM)	22.3 (≈ 46.1 µM)
CC1=C(O)[C@@H](C/C(C)=C\CC[C@H](C)/C=C/C=C(\C)CCCC2=CCN(CCc3ccccc3)C2=O)OC1=O [EPI-SARCOTRINE B]	16.8 (≈ 32.5 µM)	13.1 (≈ 25.3 µM)	4.8 (≈ 9.27 µM)	10.5 (≈ 20.3 µM)	5.4 (≈ 10.4 µM)
COC1C=C(CCC/C(C)=C/C=C/[C@@H](C)CC/C=C(/C)C[C@@H]2OC(=O)C(C)=C2O)C(=O)O1 (stereo not given in full) [SARCOTIN F]	24.1 (≈ 54.2 µM)	15.2 (≈ 34.2 µM)	7.6 (≈ 17.1 µM)	20.1 (≈ 45.2 µM)	10.5 (≈ 23.6 µM)
COC(/C=C/[C@@H](C)CC/C=C(/C)C[C@@H]1OC(=O)C(C)=C1O)C(C)(O)CCCc1ccoc1 (stereo not given in full) [SARCOTIN M]	9 (≈ 20.2 µM)	8.4 (≈ 18.8 µM)	9.9 (≈ 22.2 µM)	11.3 (≈ 25.3 µM)	10.1 (≈ 22.6 µM)
